“And” between values parts separate entries of the source, which are not always exact repeats. Equal values may be shown once. Read-outs that look alike come from different tables or passages of the source.
Tests used:
[1] = tested on: Rhizoctonia solani
Protocol: To assess the effects of composition on fungal growth, 10 microliters of the test compositions diluted in sterile distilled water were placed in the wells of a 12-well tissue culture plate and 1 milliliter of PDA was added by pipette to each well. The plate was agitated to distribute the test composition evenly throughout the agar (distilled water alone was used as control) and then the agar was allowed to set. Plugs of agar containing fungal hyphae (3×3 millimeters) from an established fungal culture were cut out using a scalpel and inserted into holes cut into the centre of the agar in each well of the 12-well plate, which was then cultured at room temperature (22° C.). To assess the effects of compositions on radial fungal growth, the diameter the fungal hyphae was measured twice at a 90° angle using a ruler and the average diameter in millimeters was calculated. If no fungal growth could be detected by eye, the cultures were observed by phase microscopy (40×) to confirm that there was no growth (NG) as judged by visual examination.
To assess the effects of compounds and compositions on sclerotia formation, the R. solani cultures were examined daily and radial fungal growth was measured until the cultures were confluent after which time the development of white (immature) sclerotia and mature (black pigmented) sclerotia was noted and the number of mature sclerotia was counted on day 10 of culture.

[2] = tested on: spores of F. oxysporum; assay: Sporicidal assay (1) with sodium nitrite, F. oxysporum; type: cell-based, Fusarium oxysporum f. sp. cubense
[3] = tested on: Magnaporthe oryzae; type: cell-based; conditions: for M. oryzae fungal growth (mm): 30 min exposure, 4 days culture
[4] = pH of diluted compositions and components; type: physicochemical
[5] = tested on: Rhizoctonia solani; assay: Inhibition of fungal growth assay (radial growth on PDA); conditions: for IC50 (% of stock solution) on growth of R. solani: potato dextrose agar, 24 hour culture at 22° C.
Protocol: Inhibition of fungal growth assay. The Rhizoctonia solani (R. solani) strain was isolated from sclerotia on the skin of a potato and was maintained in culture on potato dextrose agar (PDA) at room temperature (22° C.). To assess the effects of the compositions on fungal growth, 10 microliters of the test compositions diluted in sterile distilled water was placed in the wells of a 12-well tissue culture plate and 1 milliliter of PDA was added by pipette to each well. The plate was agitated to distribute the test composition evenly throughout the agar (distilled water alone was used as control) and then the agar was allowed to set. Plugs of agar containing fungal hyphae (3×3 millimeters) from an established fungal culture were cut out using a scalpel and inserted into holes cut into the centre of the agar in each well of the 12-well plate, which was then cultured at room temperature. To assess the effects of compositions on radial fungal growth, the diameter of the fungal hyphae was measured twice at a 90° angle using a ruler and the average diameter in millimeters was calculated. Concentrations of compositions required to inhibit the radial growth of R. solani by 50% (IC50) were determined graphically.

[6] = tested on: spores of B. cinerea; assay: Sporicidal assay (1) with sodium nitrite, B. cinerea; type: cell-based, Botrytis cinerea
[7] = tested on: sclerotia of R. solani; assay: Scleroticidal assay with compositions and sodium nitrite; type: cell-based, Rhizoctonia solani
Text: Scleroticidal assay. Plugs of agar containing white immature sclerotia (3×3 millimeters) were cut from a 6 to 8 day culture of R. solani, whilst mature melanized (black) sclerotia (around 10×3 millimeters) were excised from 13-day old R. solani cultures and cut into 2×3 millimeter pieces with a scalpel. The sclerotia samples were then placed in the wells of a 96-well plate containing 75 microliters of various concentrations of sodium nitrite or sterile distilled water (DW) as control. TO start the reaction, 75 microliters of CuZn #31 (diluted in DW) was added to the wells. The plate was carefully shaken and incubated at room temperature for 10 minutes when the liquid was carefully removed and 150 microliters of CM-1 medium was added for 5 minutes to stop the reaction.

[8] = FIG. 3, 2 to 3 replicate experiments
[9] = NaNO2 0 mM, test item 0.3%, 30 min
[10] = NaNO2 1 mM, test item 0.1%, 30 min
[11] = NaNO2 1 mM, test item 0.3%, 30 min
[12] = NaNO2 3 mM, test item 0.1%, 30 min
[13] = NaNO2 3 mM, test item 0.3%, 30 min
[14] = NaNO2 10 mM, test item 0.1%, 30 min
[15] = NaNO2 10 mM, test item 0.3%, 30 min
[16] = NaNO2 30 mM, test item 0.1%, 30 min
[17] = NaNO2 30 mM, test item 0.3%, 30 min
[18] = NaNO2 1 mM + DW (sodium nitrite alone)
[19] = NaNO2 3 mM + DW (sodium nitrite alone)
[20] = NaNO2 10 mM + DW (sodium nitrite alone)
[21] = NaNO2 30 mM + DW (sodium nitrite alone)

OP(O)O [Composition H3PO3, phosphorous acid]
Day 1 growth in mm ([1]; 10 mg/L (Table 9)): 18 mm
Day black SCL 1st seen ([1]; 10 mg/L (Table 9)): 5
Day growth confluent ([1]; 10 mg/L (Table 9)): 2
Day white SCL 1st seen ([1]; 10 mg/L (Table 9)): 3
No. black SCL on day 10 ([1]; 10 mg/L (Table 9)): 17
Day 1 growth in mm ([1]; 12 mg/L (Table 11)): 20 mm
Day black SCL 1st seen ([1]; 12 mg/L (Table 11)): 6
Day growth confluent ([1]; 12 mg/L (Table 11)): 2
Day white SCL 1st seen ([1]; 12 mg/L (Table 11)): 3
No. black SCL on day 10 ([1]; 12 mg/L (Table 11)): >20
Day 1 growth in mm ([1]; 12 mg/L, adjusted to equal amounts of PO3 group (Table 10)): 18 mm
Day black SCL 1st seen ([1]; 12 mg/L, equal PO3 (Table 10)): 6
Day growth confluent ([1]; 12 mg/L, equal PO3 (Table 10)): 2
Day white SCL 1st seen ([1]; 12 mg/L, equal PO3 (Table 10)): 3
No. black SCL on day 10 ([1]; 12 mg/L, equal PO3 (Table 10)): >20
Day 1 growth in mm ([1]; 20 mg/L (Table 9)): 18 mm
Day growth confluent ([1]; 20 mg/L (Table 9)): 2
Day white SCL 1st seen ([1]; 20 mg/L (Table 9)): 4
No. black SCL on day 10 ([1]; 20 mg/L (Table 9)): 0
Day 1 growth in mm ([1]; 40 mg/L (Table 9)): 16 mm
Day growth confluent ([1]; 40 mg/L (Table 9)): 2
No. black SCL on day 10 ([1]; 40 mg/L (Table 9)): 0
Day 1 growth in mm ([1]; 40 mg/L (Table 11)): 19 mm
Day growth confluent ([1]; 40 mg/L (Table 11)): 2
No. black SCL on day 10 ([1]; 40 mg/L (Table 11)): 0
Day 1 growth in mm ([1]; 40 mg/L, adjusted to equal amounts of PO3 group (Table 10)): 16 mm
Day growth confluent ([1]; 40 mg/L, equal PO3 (Table 10)): 2
No. black SCL on day 10 ([1]; 40 mg/L, equal PO3 (Table 10)): 0
Day 1 growth in mm ([1]; 80 mg/L (Table 9)): 14 mm
Day growth confluent ([1]; 80 mg/L (Table 9)): 3
No. black SCL on day 10 ([1]; 80 mg/L (Table 9)): 0
Day 1 growth in mm ([1]; 120 mg/L (Table 11)): 14 mm
Day growth confluent ([1]; 120 mg/L (Table 11)): 3
No. black SCL on day 10 ([1]; 120 mg/L (Table 11)): 0
Day 1 growth in mm ([1]; 120 mg/L, adjusted to equal amounts of PO3 group (Table 10)): 10 mm
Day growth confluent ([1]; 120 mg/L, equal PO3 (Table 10)): 4
No. black SCL on day 10 ([1]; 120 mg/L, equal PO3 (Table 10)): 0
Day 1 growth in mm ([1]; 160 mg/L (Table 9)): 11 mm
Day growth confluent ([1]; 160 mg/L (Table 9)): 3
No. black SCL on day 10 ([1]; 160 mg/L (Table 9)): 0
Day 1 growth in mm ([1]; 400 mg/L (Table 11)): 6 mm
No. black SCL on day 10 ([1]; 400 mg/L (Table 11)): 0
Day 1 growth in mm ([1]; 400 mg/L, adjusted to equal amounts of PO3 group (Table 10)): 5 mm
No. black SCL on day 10 ([1]; 400 mg/L, equal PO3 (Table 10)): 0
times more active than AMPA at inhibiting black sclerotia formation [1, 8]: around 30 times
times more active than glyphosate at inhibiting black sclerotia formation [1, 8]: around 20 times
Fungal growth score, spores of F. oxysporum [2, 9]: 2
Fungal growth score, spores of F. oxysporum ([2]; NaNO2 1 mM, test item 0.03%, 30 min): 2
Fungal growth score, spores of F. oxysporum [2, 10]: 2
Fungal growth score, spores of F. oxysporum [2, 11]: 2
Fungal growth score, spores of F. oxysporum ([2]; NaNO2 3 mM, test item 0.03%, 30 min): 2
Fungal growth score, spores of F. oxysporum [2, 12]: 2
Fungal growth score, spores of F. oxysporum [2, 13]: 1
Fungal growth score, spores of F. oxysporum ([2]; NaNO2 10 mM, test item 0.03%, 30 min): 2
Fungal growth score, spores of F. oxysporum [2, 14]: 2
Fungal growth score, spores of F. oxysporum [2, 15]: 0
Fungal growth score, spores of F. oxysporum ([2]; NaNO2 30 mM, test item 0.03%, 30 min): 2
Fungal growth score, spores of F. oxysporum [2, 16]: 1
Fungal growth score, spores of F. oxysporum [2, 17]: 0
M. oryzae fungal growth (mm) ([3]; NaNO2 0 mM, composition 1%): 21 mm
M. oryzae fungal growth (mm) ([3]; NaNO2 10 mM, composition 0.1%): 20 mm
percent of control (A, B, M) used to calculate Sf ([3]; NaNO2 10 mM, composition 0.3%): 38%
M. oryzae fungal growth (mm) ([3]; NaNO2 10 mM, composition 0.3%): 13 mm
percent of control (A, B, M) used to calculate Sf ([3]; NaNO2 10 mM, composition 1%): 48%
M. oryzae fungal growth (mm) ([3]; NaNO2 10 mM, composition 1%): 11 mm
fungicidal activity to M. oryzae ([3]; absence of sodium nitrite, 1% of stock solution): not fungicidal
pH of a 1% solution in DW ([4]; 1% in distilled water): 2.12
pH: 1% in DW + 100 mM NaNO2 ([4]; 1% in distilled water with 100 mM sodium nitrite): 4.22
IC50 values with R. solani (fungal growth) [5]: around 250 mg/L
IC50 (% of stock solution) on growth of R. solani [5]: 0.64^+ % of stock solution
IC50 (% of stock solution) on growth of R. solani ([5]; listed as phosphorous acid): 0.64 % of stock solution
Fungal growth score, spores of B. cinerea ([6]; NaNO2 0 mM, test item 0.1%, 30 min): 2
Fungal growth score, spores of B. cinerea [6, 9]: 2
Fungal growth score, spores of B. cinerea ([6]; NaNO2 0 mM, test item 1%, 30 min): 2
Fungal growth score, spores of B. cinerea [6, 10]: 2
Fungal growth score, spores of B. cinerea [6, 11]: 2
Fungal growth score, spores of B. cinerea ([6]; NaNO2 1 mM, test item 1%, 30 min): 2
Fungal growth score, spores of B. cinerea [6, 12]: 2
Fungal growth score, spores of B. cinerea [6, 13]: 2
Fungal growth score, spores of B. cinerea ([6]; NaNO2 3 mM, test item 1%, 30 min): 1
Fungal growth score, spores of B. cinerea [6, 14]: 2
Fungal growth score, spores of B. cinerea [6, 15]: 2
Fungal growth score, spores of B. cinerea ([6]; NaNO2 10 mM, test item 1%, 30 min): 0
Fungal growth score, spores of B. cinerea [6, 16]: 2
Fungal growth score, spores of B. cinerea [6, 17]: 2
Fungal growth score, spores of B. cinerea ([6]; NaNO2 30 mM, test item 1%, 30 min): 0
Fungal growth score, spores of B. cinerea ([6]; NaNO2 100 mM, test item 0.1%, 30 min): 2
Fungal growth score, spores of B. cinerea ([6]; NaNO2 100 mM, test item 0.3%, 30 min): 1
Fungal growth score, spores of B. cinerea ([6]; NaNO2 100 mM, test item 1%, 30 min): 0

O=NO [NaNO2, sodium nitrite]
sporicidal activity to F. oxysporum spores ([2]; 100 millimolar sodium nitrite alone, data not shown): sporicidal
Fungal growth score, spores of F. oxysporum [2, 18]: 2
Fungal growth score, spores of F. oxysporum [2, 19]: 2
Fungal growth score, spores of F. oxysporum [2, 20]: 2
Fungal growth score, spores of F. oxysporum [2, 21]: 2
Mean fungal growth (in mm ± SD, n = 2) of black sclerotia after treatment ([7]; NaNO2 30 mM + 0 composition (sodium nitrite alone)): 41 ± 2 mm and 43 ± 2 mm
scleroticidal effect (words, FIG. 2) ([7]; sodium nitrite alone (0+100), white or black sclerotia): little or no significant scleroticidal effect
Fungal growth score, spores of B. cinerea [6, 18]: 2
Fungal growth score, spores of B. cinerea [6, 19]: 2
Fungal growth score, spores of B. cinerea [6, 20]: 2
Fungal growth score, spores of B. cinerea [6, 21]: 2
Fungal growth score, spores of B. cinerea ([6]; NaNO2 100 mM + DW (sodium nitrite alone)): 2

— patent publication US11395492B2, “Antimicrobial and agrochemical compositions” (Myco Sciences Limited, priority 2015, dated 2022)
